# Measurements: PubChem BioAssay AID1259407 (Chemical Carcinogenesis Research Information System (CCRIS), 2018)
# Activity calls are given as the source filed them. How the calls were made is not given here.
# System: CCRIS mutagenicity, Ames/micronucleus/aberration tests
# Test: CCRIS mutagenicity studies
# [1] = Test System: AMES SALMONELLA TYPHIMURIUM, Strain/Indicator: TA98, Metabolic Activation: NONE, Method: STANDARD PLATE
# [2] = Test System: AMES SALMONELLA TYPHIMURIUM, Strain/Indicator: TA98, Metabolic Activation: RAT, LIVER, S-9, AROCLOR 1254, Method: STANDARD PLATE
# [3] = Test System: AMES SALMONELLA TYPHIMURIUM, Strain/Indicator: TA100, Metabolic Activation: NONE, Method: STANDARD PLATE
# [4] = Test System: AMES SALMONELLA TYPHIMURIUM, Strain/Indicator: TA100, Metabolic Activation: RAT, LIVER, S-9, AROCLOR 1254, Method: STANDARD PLATE
# [5] = Test System: AMES SALMONELLA TYPHIMURIUM, Strain/Indicator: TA102, Metabolic Activation: NONE, Method: STANDARD PLATE
# [6] = Test System: AMES SALMONELLA TYPHIMURIUM, Strain/Indicator: TA102, Metabolic Activation: RAT, LIVER, S-9, AROCLOR 1254, Method: STANDARD PLATE
# [7] = Test System: AMES SALMONELLA TYPHIMURIUM, Strain/Indicator: TA104, Metabolic Activation: NONE, Method: STANDARD PLATE
# [8] = Test System: AMES SALMONELLA TYPHIMURIUM, Strain/Indicator: TA104, Metabolic Activation: RAT, LIVER, S-9, AROCLOR 1254, Method: STANDARD PLATE
# [9] = Test System: AMES SALMONELLA TYPHIMURIUM, Strain/Indicator: TA1535, Metabolic Activation: NONE, Method: STANDARD PLATE
# [10] = Test System: AMES SALMONELLA TYPHIMURIUM, Strain/Indicator: TA1537, Metabolic Activation: NONE, Method: STANDARD PLATE
structure (smiles),measurement,setting,value
S=C1NCCN1,mutagenic call,"Test System: AMES SALMONELLA TYPHIMURIUM, Strain/Indicator: TA98, Metabolic Activation: HAMSTER, LIVER, S-9, AROCLOR 1254 (10%), Method: PREINCUBATION",inactive; negative
same,mutagenic call,"Test System: AMES SALMONELLA TYPHIMURIUM, Strain/Indicator: TA98, Metabolic Activation: NONE, Method: PREINCUBATION",inactive; negative
same,mutagenic call,[1],inactive; negative
same,mutagenic call,"Test System: AMES SALMONELLA TYPHIMURIUM, Strain/Indicator: TA98, Metabolic Activation: RAT, LIVER, S-9, AROCLOR 1254 (10%), Method: PREINCUBATION",inactive; negative
same,mutagenic call,[2],inactive; negative
same,mutagenic call,"Test System: AMES SALMONELLA TYPHIMURIUM, Strain/Indicator: TA100, Metabolic Activation: HAMSTER, LIVER, S-9, AROCLOR 1254 (10%), Method: PREINCUBATION",inactive; negative
same,mutagenic call,"Test System: AMES SALMONELLA TYPHIMURIUM, Strain/Indicator: TA100, Metabolic Activation: NONE, Method: PREINCUBATION",inactive; negative
same,mutagenic call,[3],inactive; negative
same,mutagenic call,"Test System: AMES SALMONELLA TYPHIMURIUM, Strain/Indicator: TA100, Metabolic Activation: RAT, LIVER, S-9, AROCLOR 1254 (10%), Method: PREINCUBATION",inactive; negative
same,mutagenic call,[4],inactive; negative
same,mutagenic call,[5],inactive; negative
same,mutagenic call,[6],inactive; negative
same,mutagenic call,[7],inactive; negative
same,mutagenic call,[8],inactive; negative
same,mutagenic call,[9],active; positive
same,mutagenic call,"Test System: AMES SALMONELLA TYPHIMURIUM, Strain/Indicator: TA1535, Metabolic Activation: S-9 MIX, Method: STANDARD PLATE",active; positive
same,mutagenic call,"Test System: AMES SALMONELLA TYPHIMURIUM, Strain/Indicator: TA1537, Metabolic Activation: HAMSTER, LIVER, S-9, AROCLOR 1254 (10%), Method: PREINCUBATION",inactive; negative
same,mutagenic call,"Test System: AMES SALMONELLA TYPHIMURIUM, Strain/Indicator: TA1537, Metabolic Activation: NONE, Method: PREINCUBATION",inactive; negative
same,mutagenic call,"Test System: AMES SALMONELLA TYPHIMURIUM, Strain/Indicator: TA1537, Metabolic Activation: RAT, LIVER, S-9, AROCLOR 1254 (10%), Method: PREINCUBATION",inactive; negative
same,mutagenic call,"Test System: MOUSE LYMPHOMA, Strain/Indicator: L5178Y (TK+/TK-), Metabolic Activation: NONE, Method: SUSPENSION/PLATE",inactive; negative
same,mutagenic call,"Test System: MOUSE LYMPHOMA, Strain/Indicator: L5178Y (TK+/TK-), Metabolic Activation: RAT, LIVER, S-9, AROCLOR 1254, Method: SUSPENSION/PLATE",active; positive
Cc1snc2ccccc12,mutagenic call,[1],inactive; negative
same,mutagenic call,"Test System: AMES SALMONELLA TYPHIMURIUM, Strain/Indicator: TA98, Metabolic Activation: S-9, Method: STANDARD PLATE",inactive; negative
same,mutagenic call,[3],inactive; negative
same,mutagenic call,"Test System: AMES SALMONELLA TYPHIMURIUM, Strain/Indicator: TA100, Metabolic Activation: S-9, Method: STANDARD PLATE",active; positive
same,mutagenic call,[9],inactive; negative
same,mutagenic call,"Test System: AMES SALMONELLA TYPHIMURIUM, Strain/Indicator: TA1535, Metabolic Activation: S-9, Method: STANDARD PLATE",inactive; negative
same,mutagenic call,[10],inactive; negative
same,mutagenic call,"Test System: AMES SALMONELLA TYPHIMURIUM, Strain/Indicator: TA1537, Metabolic Activation: S-9, Method: STANDARD PLATE",inactive; negative
Cc1c(N)c(=O)n(-c2ccccc2)n1C,mutagenic call,"Test System: AMES SALMONELLA TYPHIMURIUM, Strain/Indicator: TA97, Metabolic Activation: NONE, Method: STANDARD PLATE",active; positive
same,mutagenic call,"Test System: AMES SALMONELLA TYPHIMURIUM, Strain/Indicator: TA97, Metabolic Activation: RAT, LIVER, S-9, AROCLOR 1254, Method: STANDARD PLATE",active; positive
same,mutagenic call,"Test System: AMES SALMONELLA TYPHIMURIUM, Strain/Indicator: TA97A, Metabolic Activation: RAT, LIVER, S-9, AROCLOR 1254, Method: STANDARD PLATE",active; positive
same,mutagenic call,[1],inactive; negative
same,mutagenic call,[2],inactive; negative
same,mutagenic call,[3],inactive; negative
same,mutagenic call,[4],inactive; negative
same,mutagenic call,[5],inactive; negative
same,mutagenic call,[6],inactive; negative
same,mutagenic call,[7],inactive; negative
same,mutagenic call,[8],inactive; negative
same,mutagenic call,[10],inactive; negative
same,mutagenic call,"Test System: AMES SALMONELLA TYPHIMURIUM, Strain/Indicator: TA1537, Metabolic Activation: RAT, LIVER, S-9, AROCLOR 1254, Method: STANDARD PLATE",inactive; negative
Oc1cccc2ccc3[nH]c4ccc5ccccc5c4c3c12,mutagenic call,"Test System: AMES SALMONELLA TYPHIMURIUM, Strain/Indicator: TM677, Metabolic Activation: NONE, Method: PREINCUBATION",inactive; negative
same,mutagenic call,"Test System: AMES SALMONELLA TYPHIMURIUM, Strain/Indicator: TM677, Metabolic Activation: RAT, LIVER, S-9, 3-METHYLCHOLANTHRENE (1%), Method: PREINCUBATION",inactive; negative
same,mutagenic call,"Test System: AMES SALMONELLA TYPHIMURIUM, Strain/Indicator: TM677, Metabolic Activation: RAT, LIVER, S-9, 3-METHYLCHOLANTHRENE (10%), Method: PREINCUBATION",inactive; negative
same,mutagenic call,"Test System: AMES SALMONELLA TYPHIMURIUM, Strain/Indicator: TM677, Metabolic Activation: RAT, LIVER, S-9, AROCLOR 1254 (10%), Method: PREINCUBATION",inactive; negative
